Laboratory results as given in patent US9126984B2, “4-(indol-3-yl)-pyrazole derivatives, pharmaceutical compositions and methods for use” (ITEOS THERAPEUTICS, priority 2013, dated 2015).

How the values were obtained:
[1] = molecular target: T1, murine mastocytoma P815 cells overexpressing hTDO2 (Homo sapiens, UniProt P48775); assay: Cellular assay for TDO2 activity determination; type: cell-based; details: P815 cells overexpressing hTDO2, overnight incubation at 37° C., kynurenine absorbance at 480 nm
T1 construct: expressed in transfected cells; host or cells: murine mastocytoma P815 cells
T1 sequence (P48775 whole entry): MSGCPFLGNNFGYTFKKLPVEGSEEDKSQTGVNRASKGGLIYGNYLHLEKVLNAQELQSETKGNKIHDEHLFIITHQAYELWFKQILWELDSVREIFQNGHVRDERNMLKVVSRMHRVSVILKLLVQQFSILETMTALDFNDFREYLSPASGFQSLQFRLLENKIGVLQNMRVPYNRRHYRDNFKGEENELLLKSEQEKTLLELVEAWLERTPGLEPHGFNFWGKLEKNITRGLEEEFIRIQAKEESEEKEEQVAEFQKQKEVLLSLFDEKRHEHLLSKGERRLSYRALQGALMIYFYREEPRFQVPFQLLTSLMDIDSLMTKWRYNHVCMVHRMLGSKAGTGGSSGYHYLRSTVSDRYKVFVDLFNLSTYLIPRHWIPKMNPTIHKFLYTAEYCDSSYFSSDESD
Experimental: The assay was performed in 96-well flat bottom plates seeded with murine mastocytoma P815 cells overexpressing hTDO2 (prepared as described in Pilotte et al., PNAS, 2012, 109(7), 2497-2502), at a concentration of 5×10^4 cells/well in a final volume of 200 μL. To determine TDO or IDO activity, the cells were incubated overnight at 37° C. at 5% CO2 in IMDM (Invitrogen) supplemented with 2% FBS and 2% penicillin/streptomycin in the presence of the compounds of the present invention, at different concentrations.
The plates were then centrifuged 5 min at 1000 rpm, and 100 μL of the supernatant were collected in a conical plate, 30 uL of TCA 30% were added and a further centrifugated at 3000×g for 10 minutes. 100 μL of the supernatant were collected in a flat bottomed plate and 100 μL of 2% (w/v) 4-(dimethylamino)-benzaldehyde in acetic acid and incubated for 5 min at room temperature. Kynurenine concentrations were determined by measuring the absorbance at 480 nm. A standard curve was made with pure kynurenine. The TDO activity was measured as described above using ten serial concentrations of the compounds of the present invention. Data were fitted using the Prism software (GraphPad Software, Inc.).

[2] = molecular target: T2, human recombinant TDO2 enzyme (Homo sapiens, UniProt P48775); assay: Assay for TDO2 enzymatic activity determination; type: biochemical; details: human recombinant TDO2, L-Trp 1 mM, room temperature one hour, kynurenine absorbance at 480 nm
T2 construct: made in house
T2 sequence (P48775 whole entry): as above
Experimental: To measure the TDO2 activity, the reaction mixture contained (final concentrations) potassium phosphate buffer (50 mM, pH 7.5), ascorbic acid (0.25 M), methylene blue (0.125 μM), catalase (40 units/mL, from bovine liver, Sigma), and human recombinant TDO2 enzyme (prepared as described in Dolusic et al. J. Med. Chem.; 2011, 54, 5320-5334; 0.9 μg) without or with the compounds of the present invention embodiments at the indicated concentrations (total volume 112.5 μL). The reaction was initiated by the addition of 37.5 μL of L-Trp (final concentration 1 mM) at room temperature. The reaction was conducted at room temperature during one hour and stopped by the addition of 30 μL of 30% (w/v) trichloroacetic acid.
To convert N-formylkynurenine into kynurenine, the reaction mixture was incubated at 65° C. for 30 min. Then 150 μL of the reaction mixture was mixed with 120 μL, of 2.5% (w/v) 4-(dimethylamino)-benzaldehyde in acetic acid and incubated for 5 min at room temperature. Kynurenine concentrations were determined by measuring the absorbance at 480 nm. A standard curve was made with pure kynurenine. The TDO activity was measured as described above using ten serial concentrations of certain embodiments of the compounds of the present invention. Data were fitted using the Prism software (GraphPad Software, Inc.).

Row | IC50 [1] [nM] | melting point [°C] | IC50 [2] [nM] | Compound
1 | < 1000 | 173.3 to 175 | < 1000 | NC(=O)CCn1cc(-c2c[nH]c3cc(F)ccc23)cn1 [Example 7, 3-(4-(6-fluoro-1H-indol-3-yl)-1H-pyrazol-1-yl)propanamide]
2 | 1000 to 10000 | 94.2 to 95.2 | < 1000 | CNCCn1cc(-c2c[nH]c3cc(F)ccc23)cn1 [Example 24, 2-(4-(6-fluoro-1H-indol-3-yl)-1H-pyrazol-1-yl)-N-methylethanamine]
3 | < 1000 | 167.1 to 168.9 | 1000 to 10000 | Fc1cc2[nH]cc(-c3cnn(CC4CCNCC4)c3)c2cc1F [Example 44, 5,6-difluoro-3-(1-(piperidin-4-ylmethyl)-1H-pyrazol-4-yl)-1H-indole]
4 | < 1000 | 183.2 to 184.5 | 1000 to 10000 | CC(=O)N1CCC(n2cc(-c3c[nH]c4cc(F)ccc34)cn2)CC1 [Example 89, 1-(4-(4-(6-fluoro-1H-indol-3-yl)-1H-pyrazol-1-yl)piperidin-1-yl)ethanone]
5 | – | 223 to 224.6 | 1000 to 10000 | CN(C)C(=O)N1CCC(n2cc(-c3c[nH]c4cc(F)ccc34)cn2)CC1 [Example 90, 4-(4-(6-fluoro-1H-indol-3-yl)-1H-pyrazol-1-yl)-N,N-dimethylpiperidine-1-carboxamide]

Further lines, the compound ahead of its results:

Row | Compound | IC50 [1] [nM] | melting point [°C] | IC50 [2] [nM]
6 | CC(Cn1cc(-c2c[nH]c3cc(F)ccc23)cn1)C(N)=O (single isomer, unassigned) [Example 35, 3-(4-(6-fluoro-1H-indol-3-yl)-1H-pyrazol-1-yl)-2-methylpropanamide] | < 1000 | 184.5 to 185.5 | 1000 to 10000
7 | CS(=O)(=O)CCn1cc(-c2c[nH]c3cc(F)ccc23)cn1 [Example 31, 6-fluoro-3-(1-(2-(methylsulfonyl)ethyl)-1H-pyrazol-4-yl)-1H-indole] | < 1000 | 153.3 to 155.1 | 1000 to 10000
8 | Fc1ccc2c(-c3cnn(CC4CCOCC4)c3)c[nH]c2c1 [Example 58, 6-fluoro-3-(1-((tetrahydro-2H-pyran-4-yl)methyl)-1H-pyrazol-4-yl)-1H-indole] | 1000 to 10000 | 138.9 to 139.6 | 1000 to 10000
9 | O=S1(=O)CCC(Cn2cc(-c3c[nH]c4cc(F)ccc34)cn2)CC1 [Example 60, 4-((4-(6-fluoro-1H-indol-3-yl)-1H-pyrazol-1-yl)methyl)tetrahydro-2H-thiopyran 1,1-dioxide] | 1000 to 10000 | 193.1 to 194.1 | 1000 to 10000
10 | Fc1ccc2c(-c3cnn(C4CCNCC4)c3)c[nH]c2c1 [Example 78, 6-fluoro-3-(1-(piperidin-4-yl)-1H-pyrazol-4-yl)-1H-indole] | < 1000 | 240.1 to 241.8 | 1000 to 10000
11 | CN1CCC(n2cc(-c3c[nH]c4cc(F)ccc34)cn2)CC1 [Example 91, 6-fluoro-3-(1-(1-methylpiperidin-4-yl)-1H-pyrazol-4-yl)-1H-indole] | < 1000 | 222.8 to 223.7 | 1000 to 10000
